Measured values reported in patent US12629419B2, “Prevention or mitigation of T-cell engaging agent-related adverse effects” (Hoffmann-La Roche Inc., priority 2020, dated 2026).
Entries after “also recorded” stand apart in the source; their conditions may differ.

Assays:
CD4+ and CD8+ T cells [1] = assay: T cell activation (CD25, CD69 by flow cytometry) in CEA-TCB killing assay; assay type: cell-based; details: 10 nM CEA-TCB; for T cell activation triggered by the TCB: summary statement, also for target cell killing; for CD25 and CD69 expression on CD4+ and CD8+ T cells (T cell activation): 66 h, fixed compound concentrations
[2] = tested on: CD19-TCB-induced cytokine release; assay: CD19-TCB-induced cytokine release in SUDLH-8 assay (Luminex); assay type: cell-based; details: 24 hrs
Procedure: PBMCs were co-cultured together with CellTrace™ Violet (CTV) labelled SUDLH-8 tumor cells and escalating concentrations of CD19-TCB in the presence of the different kinase inhibitors, including also the Src inhibitor dasatinib (FIG. 64). At assay endpoint (24 hrs), the killing of CTV labelled SUDLH-8 cells was measured by flow cytometry by exclusion of the dead SUDLH-8 cells with a Live/Dead stain. […] Lastly, the levels of cytokines were measured in the supernatants of the assay to evaluate the effect of mTOR, JAK and Src inhibitors on CD19-TCB-induced cytokine release.
At assay endpoint (24 hrs), the killing of CTV labelled SUDLH-8 cells was measured by flow cytometry by exclusion of the dead SUDLH-8 cells with a Live/Dead stain. […] Lastly, the levels of cytokines were measured in the supernatants of the assay to assess the effect of the JAK inhibitors on CD19-TCB-induced cytokine release.
At assay endpoint (24 hrs), the killing of CTV labelled SUDLH-8 cells was measured by flow cytometry by exclusion of the dead SUDLH-8 cells with a Live/Dead stain to evaluate the effect of the different mitigation approaches on CD19-TCB-dependent killing. […] Lastly, the levels of cytokines were measured in the supernatants of the assay to address the effect of the JAK inhibitors on CD19-TCB-induced cytokine release.

[3] = tested on: CEA-TCB-induced cytokine release; assay: CEA-TCB-induced cytokine release (Luminex, supernatants); details: 10 nM CEA-TCB; for levels of IFN-γ, TNF-α, IL-2, IL-6, MCP-1, IL-8, IL-10, IL-4 and GM-CSF: assay endpoint 72 h (ruxolitinib 69 h), in comparison to samples without inhibitor; for CEA-TCB induced cytokine release: even at the lowest doses tested; for CEA-TCB-induced cytokine release: fixed compound concentrations
Procedure: The levels of cytokines were measured by Luminex in the supernatants of the assay to determine the impact of the different compounds on CEA-TCB-induced cytokine release.

[4] = tested on: A375 NucLight Red (NLR) target-cells; assay: killing assay with PBMCs, A375 NLR target cells and MAGEA4-TCB (Incucyte); assay type: cell-based; details: 8 nM MAGEA4-TCB; escalating inhibitor concentrations
[5] = tested on: CD20-TCB-induced cytokine release; assay: CD20-TCB-induced cytokine release (Luminex); assay type: cell-based; details: 24 h; for CD20-TCB-induced cytokine release: escalating CD20-TCB / 1 nM CD20-TCB, fixed compound concentrations
Procedure: A similar experiment was conducted with another TCB.
(§1) A similar experiment was conducted with CD20-TCB.
(§2) A similar experiment was conducted with CD20-TCB. WSU DLCL2 cells were co-cultured together with PBMCs in the presence of 1 nM CD20-TCB, and escalating everolimus doses ranging from 0 nM to 1000 nM (FIG. 13).
(§3) A similar experiment was conducted with CD20-TCB. WSU DLCL2 cells were co-cultured together with PBMCs in the presence of 1 nM CD20-TCB, and escalating ruxolitinib doses ranging from 0 nM to 1000 nM (FIG. 13).
(§4) A similar experiment was conducted with another TCB. […] The killing of B cells was measured as a readout for the impact of the various compounds on TCB efficacy at 24 h (FIGS. 27 and 28). […] Lastly, the levels of cytokines (TNF-α, IFN-γ, IL-2, IL-6, IL-4, IL-10, GM-CSF and IL-1β) were analyzed by Luminex at assay endpoint to assess the impact of the different treatments on TCB-induced cytokine release (FIGS. 32 and 33).
(§5) At 24 hours, tumor cell killing was measured by flow cytometry by exclusion of dead CTV cells. The supernatants were collected and cytokines were measured by Luminex.

CD4+ and CD8+ T cells [6] = assay: T cell activation (CD25, CD69) in CD20-TCB killing assay; assay type: cell-based; details: 1 nM CD20-TCB; 24 h; inhibitor 0 nM to 1000 nM
Procedure: (§6) A similar experiment was conducted with another TCB. WSU DLCL2 cells were co-cultured together with PBMCs in the presence of 1 nM CD20-TCB (SEQ ID NOs 4-11, 24-35), and escalating sirolimus doses ranging from 0 nM to 1000 nM (FIG. 13).
as §1, §2, §3, §4, §5

CD4+ and CD8+ T cells [7] = assay: CD20-TCB killing assay, inhibitors added after 18 hours: T cell activation; assay type: cell-based; details: 100 nM added at 18 h
Procedure: (§7) FIG. 34. In vitro killing assay set-up. Cell Trace™ Violet (CTV) labelled WSU DLCL2 tumor cells were co-cultured together with PBMCs [E:T=200′000:20′000] and stimulated with CD20-TCB for 18 h.
(§8) In this assay, CTV labelled WSU DLCL2 tumors cells were co-cultured with PBMCs in the presence of escalating doses of CD20-TCB for 18 hours.

[8] = tested on: CD20-TCB-induced cytokine release; assay: CD20-TCB killing assay, inhibitors added after 18 hours: cytokine release from pre-activated effector cells; assay type: cell-based; details: 100 nM added at 18 h
Procedure: as §7, §8

[9] = tested on: MKN45 NucLight Red (NLR) target cells; assay: killing assay with PBMCs, MKN45 NLR target cells and CEA-TCB (Incucyte); assay type: cell-based
[10] = tested on: MAGEA4-TCB-induced cytokine release; assay: MAGEA4-TCB-induced cytokine release; assay type: cell-based; details: 8 nM MAGEA4-TCB, 72 hours
Procedure: FIG. 45. Effect of escalating concentrations (c) of ruxolitinib on IFN-γ (A), IL-2 (B), TNF-α (C), GM-CSF (D), IL-6 (E), IL-1β (F), IL-8 (G), MCP-1 (H) and IL-10 (I) levels induced by 8 nM MAGEA4-TCB. At 72 hours, the supernatants were collected and cytokines were analyzed by cytometric bead array (CBA). Mean of technical replicates+/−SD for 1 representative donor.
FIG. 47. […] At 72 hours, the supernatants were collected and cytokines were analyzed by CBA. Mean of technical replicates+/−SD for 1 representative donor.
The effect of ruxolitinib on TCB-induced tumor cell killing and cytokine release was assessed using an additional TCB, the MAGEA4-TCB (SEQ ID NOs 37-56).

WSU DLCL2 tumor cells = assay: killing assay with PBMCs, CTV labelled WSU DLCL2 tumor cells and CD20-TCB; assay type: cell-based; details: 24 h; for CD20-TCB-mediated target cell killing: 1 nM CD20-TCB, inhibitor 0 nM to 1000 nM; for killing of B cells: WSU cells with PBMCs, CD20-TCB, fixed compound concentrations
Procedure: FIG. 13. In vitro killing assay set-up.
FIG. 14. […] At 24 hours, the tumor cells and PBMCs from technical replicates were pooled and stained with a LIVE/DEAD™ Near-IR dead cell dye to allow exclusion of dead CTV labelled WSU DLCL2 tumor cells by flow cytometry. Mean of n=3 donors+/−SEM.
as §6, §4, §5

[11] = 72 h, concentrations above 25 nM, reduced from ~45%
[12] = 100 nM, compared with dexamethasone
[13] = 1 nM CD20-TCB, three donors, between 18 hours and 44 hours
[14] = measured at 44 hours, escalating CD20-TCB

| Structure (SMILES) | T cell activation triggered by the TCB (CD4+ and CD8+ T cells [1]) | CD25 and CD69 expression on CD4+ and CD8+ T cells (T cell activation) (CD4+ and CD8+ T cells [1]) | CD19-TCB-induced cytokine release ([2]; 100 nM inhibitor) | CD19-TCB-induced IFN-γ and TNF-α [2, 12] | levels of IFN-γ, TNF-α, IL-2, IL-6, MCP-1, IL-8, IL-10, IL-4 and GM-CSF [3] | CEA-TCB induced cytokine release [3] | CEA-TCB-induced cytokine release ([3]; 66 h) | MAGEA4-TCB induced tumor cell killing [4] | CD20-TCB-induced cytokine release [5] | T cell activation (CD25 and CD69 on CD4+ and CD8+ T cells) (CD4+ and CD8+ T cells [6]) | T cell activation (CD4+ and CD8+ T cells [7]; [13]) | T cell activation (CD4+ and CD8+ T cells [7]; [14]) | CD20-TCB-mediated target cell killing (WSU DLCL2 tumor cells) | killing of B cells (WSU DLCL2 tumor cells) | other results |
| --- | --- | --- | --- | --- | --- | --- | --- | --- | --- | --- | --- | --- | --- | --- | --- |
| CO[C@H]1C[C@@H]2CC[C@@H](C)[C@@](O)(O2)C(=O)C(=O)N2CCCC[C@H]2C(=O)O[C@H]([C@H](C)C[C@@H]2CC[C@@H](OCCO)[C@H](OC)C2)CC(=O)[C@H](C)/C=C(\C)[C@@H](O)[C@@H](OC)C(=O)[C@H](C)C[C@H](C)/C=C/C=C/C=C/1C [everolimus, Everolimus] | does not fully inhibit | milder impact | comparable to the effect of the corticosteroid dexamethasone | comparable to the effect of dexamethasone | very low | strongly downregulated; also recorded: strongly reduces | inhibited; also recorded: comparable to dexamethasone and dasatinib | did not prevent | comparable effect to dexamethasone and dasatinib | did not fully inhibit | did not impact further | did not impact | did not fully inhibit | did neither prevent | expression of CD69 on CD8+ T cells (CD4+ and CD8+ T cells [1]; 72 h): did not affect; expression of CD25 on CD4+ T cells (CD4+ and CD8+ T cells [1]; [11]): ~15%; expression of CD69 on CD4+ T cells (CD4+ and CD8+ T cells [1]; [11]): ~25%; expression of CD25 on CD8+ T cells (CD4+ and CD8+ T cells [1]; 72 h, concentrations above 25 nM, reduced from ~75% (everolimus: ~70%)): 40%; cytokine release induced by CD20-TCB (IFN-γ, IL-2, TNF-α, GM-CSF and IL-6) ([5]; 1 nM CD20-TCB, concentrations above 12.5 nM): strongly reduced; further release of IFN-γ, IL-2, IL-6 ([8]; 1 nM CD20-TCB, three donors): prevented further release; IL-2, IFN-γ, IL-6 and GM-CSF release ([8]; between 18 hours and 44 hours): stopped; release of TNF-α and IL-1β ([8]; between 18 hours and 44 hours): to a lower extent; MKN45 NLR target cell killing by 10 nM CEA-TCB ([9]; inhibitor doses 12.5 nM to 1 μM, 50 000 PBMCs: 5 000 target cells, Incucyte): only partially reduced; levels of IFN-γ, IL-2, TNF-α, IL-8, IL-6, MCP-1 and IL-10 ([10]; with increasing concentrations): reduced |
| N#CC[C@H](C1CCCC1)n1cc(-c2ncnc3[nH]ccc23)cn1 [ruxolitinib, Ruxolitinib] | does not fully inhibit | milder impact | comparable to the effect of the corticosteroid dexamethasone | comparable to the effect of dexamethasone | very low | strongly downregulated; also recorded: strongly reduces | inhibited; also recorded: comparable to dexamethasone and dasatinib | did not prevent | comparable effect to dexamethasone and dasatinib | did not fully inhibit | did not impact further | did not impact | did not fully inhibit | did neither prevent | expression of CD25 and CD69 on both CD4+ and CD8+ T cells (CD4+ and CD8+ T cells [1]; 69 h, escalating doses): dose-dependently influenced; CD19-TCB-induced IFN-γ, TNF-α, IL-6 and GM-CSF release ([2]; 100 nM inhibitor): prevented; CD19-TCB-induced IL-2 and GM-CSF [2, 12]: weaker; degree of inhibition of IFN-γ, TNF-α, GM-CSF, IL-6 and IL-8 levels ([3]; escalating concentrations, ruxolitinib vs. baricitinib): similar; IL-2 levels ([3]; 66 h, compared with the mTOR inhibitors): reduced IL-2 levels less strongly; release of TNF-α, IL-2 and GM-CSF ([5]; 1 nM CD20-TCB): did not have a strong effect; IL-6 and IFN-γ release induced by CD20-TCB ([5]; 1 nM CD20-TCB, concentrations above 25 nM): strongly reduced; IL-2 release ([8]; 1 nM CD20-TCB, three donors): did not prevent; further release of IFN-γ and IL-6 ([8]; 1 nM CD20-TCB, three donors): prevented further release; further production of IFN-γ, IL-6 ([8]; between 18 hours and 44 hours): prevented further production; further production of IL-2 ([8]; between 18 hours and 44 hours): did not prevent further production; killing of MKN45 NLR tumor cells induced by 1 nM CEA-TCB ([9]; concentration of 1 μM): partially prevented; killing of MKN45 NLR tumor cell induced by 1 nM CEA-TCB ([9]; concentrations between 0 nM and 100 nM): did not prevent; MKN45 NLR target cell killing by 10 nM CEA-TCB ([9]; inhibitor doses 6.25 nM to 100 nM): only partially reduced; levels of GM-CSF and IL-2 [10]: not impacted; levels of IFN-γ, TNF-α, IL-8, IL-6, MCP-1, IL-10 and IL-1β ([10]; with increasing concentrations): reduced |
